Source: patent publication US7767679B2, “Sulfonylamino-derivatives as novel inhibitors of histone deacetylase” (Janssen Pharmaceutica N.V., priority 2002, dated 2010)

Tests used:
[1] = system: A2780 ovarian carcinoma cells; assay: Antiproliferative activity on A2780 cells (MTT); format: cell-based; settings: Homo sapiens, 96 h, four days of incubation, read-out: Cellular activity pIC50 (converted)
Procedure: Cellular activity of the compounds of formula (I) was determined on A2780 tumour cells using a colorimetric assay for cell toxicity or survival (Mosmann Tim, Journal of Immunological Methods 65: 55-63, 1983)(see example C.2).
All compounds tested were dissolved in DMSO and further dilutions were made in culture medium. Final DMSO concentrations never exceeded 0.1% (v/v) in cell proliferation assays. Controls contained A2780 cells and DMSO without compound and blanks contained DMSO but no cells. MTT was dissolved at 5 mg/ml in PBS. A glycine buffer comprised of 0.1 M glycine and 0.1 M NaCl buffered to pH 10.5 with NaOH (1 N) was prepared (all reagents were from Merck).
The human A2780 ovarian carcinoma cells (a kind gift from Dr. T. C. Hamilton [Fox Chase Cancer Centre, Pennsylvania, USA]) were cultured in RPMI 1640 medium supplemented with 2 mM L-glutamine, 50 μg/ml gentamicin and 10% fetal calf serum. Cells were routinely kept as monolayer cultures at 37° C. in a humidified 5% CO2 atmosphere. Cells were passaged once a week using a trypsin/EDTA solution at a split ratio of 1:40. All media and supplements were obtained from Life Technologies. Cells were free of mycoplasma contamination as determined using the Gen-Probe Mycoplasma Tissue Culture kit (supplier: BioMérieux).
Cells were seeded in NUNC™ 96-well culture plates (Supplier: Life Technologies) and allowed to adhere to the plastic overnight. Densities used for plating were 1500 cells per well in a total volume of 200 μl medium. After cell adhesion to the plates, medium was changed and drugs and/or solvents were added to a final volume of 200 μl. Following four days of incubation, medium was replaced by 200 μl fresh medium and cell density and viability was assessed using an […] assay. To each well, 25 μl μl MTT solution was added and the cells were further incubated for 2 hours at 37° C. The medium was then carefully aspirated and the blue MT-formazan product was solubilized by addition of 25 μl glycine buffer followed by 100 μl of DMSO. […] Within an experiment, the results for each experimental condition are the mean of 3 replicate wells. For initial screening purposes, compounds were tested at a single fixed concentration of 10^−6 M. For active compounds, the experiments were repeated to establish full concentration-response curves. For each experiment, controls (containing no drug) and a blank incubation (containing no cells or drugs) were run in parallel. The blank value was subtracted from all control and sample values. For each sample, the mean value for cell growth (in absorbance units) was expressed as a percentage of the mean value for cell growth of the control. […] Herein the effects of test compounds are expressed as pIC50 (the negative log value of the IC50-value).

[2] = target: histone deacetylase (HeLa nuclear extracts); assay: In vitro assay for inhibition of histone deacetylase; format: biochemical; settings: HeLa nuclear extracts 60 μg/ml, [3H]acetylated histone H4 peptide substrate, 30 min
Procedure: The in vitro assay for inhibition of histone deacetylase (see example C.1) measures the inhibition of HDAC enzymatic activity obtained with the compounds of formula (I).
HeLa nuclear extracts (supplier: Biomol) were incubated at 60 μg/ml with 2×10^−8 M of radiolabeled peptide substrate. As a substrate for measuring HDAC activity a synthetic peptide, i.e. the amino acids 14-21 of histone H4, was used. The substrate is biotinylated at the NH2-terminal part with a 6-aminohexanoic acid spacer, and is protected at the COOH-terminal part by an amide group and specifically [^3H]acetylated at lysine 16. The substrate, biotin-(6-aminohexanoic)Gly-Ala-([^3H]-acetyl-Lys-Arg-His-Arg-Lys-Val-NH2), was added in a buffer containing 25 mM Hepes, 1 M sucrose, 0.1 mg/ml BSA and 0.01% Triton X-100 at pH 7.4. After 30 min the deacetylation reaction was terminated by the addition of HCl and acetic acid. (final concentration […] respectively). After stopping the reaction, the free ^3H-acetate was extracted with ethylacetate. After mixing and centrifugation, the radioactivity in an aliquot of the upper (organic) phase was counted in β-counter.
For each experiment, controls (containing HeLa nuclear extract and DMSO without compound), a blank incubation (containing DMSO but no HeLa nuclear extract or compound) and samples (containing compound dissolved in DMSO and HeLa nuclear extract) were run in parallel. In first instance, compounds were tested at a concentration of 10^−5M. […] In each test the blank value was substracted from both the control and the sample values. The control sample represented 100% of substrate deactylation. For each sample the radioactivity was expressed as a percentage of the mean value of the controls. […] Herein the effects of test compounds are expressed as pIC50 (the negative log value of the IC50-value).

Structure (SMILES) | IC50 [1] [nM] | Enzyme activity pIC50 [2] | melting point [°C]
O=C(NO)c1cnc(N2CCC(CNS(=O)(=O)c3ccc(-c4ccccc4)cc3)CC2)nc1 [compound 21] | 362 | 8.199 | –
O=C(NO)c1cnc(N2CCC(CNS(=O)(=O)c3ccccc3-c3cccc(CO)c3)CC2)nc1 [compound 37] | 2180 | 7.341 | –
CN(C1CCN(c2ncc(C(=O)NO)cn2)C1)S(=O)(=O)c1ccc2ccccc2c1 (stereo not drawn) [Co. No. 27] | 1660 | 7.49 | 158
O=C(NO)c1ccc(N2CCC(NS(=O)(=O)c3ccc4ccccc4c3)CC2)nc1 [compound 12] | 2910 | 7.438 | –
O=C(NO)c1cnc(N2CCC(NS(=O)(=O)N3CCOCC3)CC2)nc1 [Co. No. 25] | > 10000 | 6.449 | 217
O=C(NO)c1ccc(N2CCC(NS(=O)(=O)c3ccc4ccccc4c3)C2)cc1 (stereo not drawn) [compound 16] | > 10000 | 6.293 | –
O=C(NO)c1ccc(N2CCCC(NS(=O)(=O)c3ccc4ccccc4c3)CC2)nc1 (stereo not drawn) [Co. No. 10] | 2120 | 6.893 | 142
O=C(NO)c1cnc(N2CCCC(NS(=O)(=O)c3ccc4ccccc4c3)CC2)nc1 (stereo not drawn) [compound 24] | 1070 | 7.903 | –
O=C(NO)c1cnc(N2CCC(NS(=O)(=O)c3ccc4ccccc4c3)CC2)nc1N1CCN(S(=O)(=O)c2ccc3ccccc3c2)CC1 [Co. No. 6] | 2090 | <5 | 80
O=C(NO)c1cnc(N2CCC(CNS(=O)(=O)c3ccccc3-c3ccoc3)CC2)nc1 [compound 38] | 1160 | 7.154 | –
O=C(NO)c1cnc(N2CCC(CNS(=O)(=O)N3CCOCC3)CC2)nc1 [Co. No. 28] | 7780 | 7.074 | 217
O=C(NO)c1ccc(N2CCC(NS(=O)(=O)c3ccc(-c4ccccc4)cc3)CC2)cc1 [compound 14] | 2090 | 6.116 | –
O=C(NO)c1cnc(N2CCC(CNS(=O)(=O)c3ccccc3-c3ccsc3)CC2)nc1 [compound 40] | 685 | 7.273 | –
Cc1cc(C(=O)NO)ccc1N1CCC(NS(=O)(=O)c2ccc3ccccc3c2)CC1 [compound 11] | 1640 | 5.829 | –
COc1cccc(-c2ccccc2S(=O)(=O)NCC2CCN(c3ncc(C(=O)NO)cn3)CC2)c1 [compound 42] | 455 | 7.584 | –
CO[C@@H]1CN(c2ncc(C(=O)NO)cn2)CC[C@@H]1NS(=O)(=O)c1ccc2ccccc2c1 [compound 23] | 3370 | 6.662 | –
Cc1cccc(-c2ccccc2S(=O)(=O)NCC2CCN(c3ncc(C(=O)NO)cn3)CC2)c1 [compound 39] | 885 | 7.126 | –

The next lines start with the values.

IC50 [1] [nM] | Enzyme activity pIC50 [2] | melting point [°C] | Structure (SMILES)
1050 | 7.265 | – | O=C(NO)c1cnc(N2CCC(CNS(=O)(=O)c3ccccc3-c3ccc(CO)cc3)CC2)nc1 [compound 36]
556 | 7.526 | – | O=C(NO)c1cnc(N2CCN(CCNS(=O)(=O)c3ccc4ccccc4c3)CC2)nc1 [compound 32]
471 | 7.403 | – | Cc1ccccc1-c1ccccc1S(=O)(=O)NCC1CCN(c2ncc(C(=O)NO)cn2)CC1 [compound 41]
3720 | 7.04 | > 260 | CN(C1CCN(c2ncc(C(=O)NO)cn2)CC1)S(=O)(=O)c1ccc2ccccc2c1 [Co. No. 29]
> 10000 | 6.95 | – | O=C(NO)c1ccc(N2CCC(NS(=O)(=O)c3ccc4ccccc4c3)C2)nc1 (stereo not drawn) [compound 17]
5280 | 6.523 | – | O=C(NO)c1ccc(N2CCC(NS(=O)(=O)c3ccc4ccccc4c3)CC2)cc1 [Co. No. 1]
5960 | 7.857 | – | O=C(NO)c1cnc(N2CCC(NS(=O)(=O)c3ccc4ccccc4c3)C2)nc1 (stereo not drawn) [compound 31]
1160 | 7.046 | – | COCCN(C1CCN(c2ncc(C(=O)NO)cn2)CC1)S(=O)(=O)c1ccc2ccccc2c1 [compound 35]
– | – | 115 | O=C(NO)c1cnc(N2CCN(CCCNS(=O)(=O)c3ccc4ccccc4c3)CC2)nc1 (hydrate or solvate) [Co. No. 26]
513 | 7.371 | – | COc1ccc(-c2ccccc2S(=O)(=O)NCC2CCN(c3ncc(C(=O)NO)cn3)CC2)cc1 [compound 45]
2400 | 7.337 | – | O=C(NO)c1cnc(N2CCC(N(CCO)S(=O)(=O)c3ccc4ccccc4c3)CC2)nc1 [compound 34]
2140 | 7.614 | – | CS(=O)(=O)c1ccc(-c2ccccc2S(=O)(=O)NCC2CCN(c3ncc(C(=O)NO)cn3)CC2)cc1 [Co. No. 30]
643 | 7.432 | – | CN(C)c1ccc(-c2ccccc2S(=O)(=O)NCC2CCN(c3ncc(C(=O)NO)cn3)CC2)cc1 [compound 44]
698 | 5.428 | – | Cc1cc(C(=O)NO)ccc1N1CCC(NS(=O)(=O)c2ccc(-c3ccccc3)cc2)CC1 [compound 13]
738 | 7.469 | – | O=C(NO)c1cnc(N2CCC(CNS(=O)(=O)c3ccccc3-c3cc4ccccc4o3)CC2)nc1 [compound 43]
4300 | <5 | – | O=C(Nc1ccc(N2CCC(NS(=O)(=O)c3ccc4ccccc4c3)CC2)cc1)/C(Cc1ccccc1)=N/O [compound 19]
546 | 7.85 | – | O=C(NO)c1cnc(N2CCN(CCCNS(=O)(=O)c3ccc4ccccc4c3)CC2)nc1 [Co. No. 26]
49.8 | 5.321 | – | O=C(NO)c1ccc(N2CCC(NS(=O)(=O)c3ccc(-c4ccccc4)cc3)C2)nc1 (stereo not drawn) [compound 18]
1800 | <5 | 262 | O=C(Nc1ccc(N2CCC(NS(=O)(=O)c3ccc(-c4ccccc4)cc3)CC2)cc1)/C(Cc1ccccc1)=N/O [Co. No. 3]
